Activity calls are given as the source filed them.
What was measured:
cells [1] = format: functional, cell-based
[2] = target: T1, Trace amine-associated receptor 1 (Homo sapiens, UniProt Q96RJ0); assay: Counterscreen for agonists of the human trace amine associated receptor 1 (hTAAR1): Fluorescence-based cell-based high throughput dose response assay to identify hTAAR1 agonist that also desensitize TAAR1 receptor response.; format: functional
T1 sequence (Q96RJ0 whole entry): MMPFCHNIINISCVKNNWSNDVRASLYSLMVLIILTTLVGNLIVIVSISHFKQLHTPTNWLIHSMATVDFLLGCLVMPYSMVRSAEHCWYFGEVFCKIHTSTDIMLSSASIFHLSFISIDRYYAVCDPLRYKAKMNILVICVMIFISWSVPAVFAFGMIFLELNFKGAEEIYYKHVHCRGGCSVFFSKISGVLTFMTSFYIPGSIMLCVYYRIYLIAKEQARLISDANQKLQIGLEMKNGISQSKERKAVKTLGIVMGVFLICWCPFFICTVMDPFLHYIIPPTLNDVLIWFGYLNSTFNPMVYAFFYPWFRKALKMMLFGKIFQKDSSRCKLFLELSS

cells [3] = format: functional, cell-based; remark: listed apart in the source
[4] = target: T1, Trace amine-associated receptor 1; assay: Fluorescence-based cell-based high throughput dose response assay to identify agonists of the human trace amine associated receptor 1 (TAAR1).; format: functional
[5] = target: 5-hydroxytryptamine receptor 2A (Mus musculus, UniProt P35363); format: functional, cell-based;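 also: CHO-K1 cells with tagged receptor and beta-arrestin; agonist potency measured as compound-induced activation of the receptor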
Mu-type opioid receptor = Mu-type opioid receptor (Homo sapiens, UniProt P35372); format: functional, cell-based;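 also: U2OS cells with beta-arrestin recruitment to OPRM1 by beta-gal complementation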
[6] = T. cruzi growth inhibition in host cells, dose response, cell-based, plate reader, dry powder, set 2 (AID 652275); format: functional
[7] = target: Adenosylmethionine-8-amino-7-oxononanoate aminotransferase (Mycobacterium tuberculosis, UniProt P9WQ81); assay: Mycobacterium tuberculosis BioA enzyme inhibitor Measured in Biochemical System Using Plate Reader - 2163-02_Inhibitor_Dose_CherryPick_Activity.; format: functional, Mycobacterium tuberculosis UT205
[8] = target: Photoreceptor-specific nuclear receptor (Homo sapiens, UniProt Q9Y5X4); format: functional, cell-based;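 also: CHO-S cells with Gal4-NCOR and VP16-NR2E3 two-hybrid luciferase reporter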
Albumin = Albumin (Bos taurus, UniProt P02769); assay: Counterscreen for inhibitors of T-cell receptor (TCR)-CD3 interaction: Fluorescence-based biochemical high throughput dose response assay to identify inhibitors of T-cell receptor (TCR)-CD3 interaction using a TAMRA-labeled BSA probe.; format: functional
[9] = non-specific 3'UTR reporter inhibition in Clone20-Shn3RL – cell-based, Renilla luciferase, cherry-picked, counter-screen for Shn3 inhibitor project, dose response (AID 624133); format: functional
[10] = reduction of Shn3 3'UTR-driven luciferase in osteoblasts – cell-based, Clone20 osteoblasts, firefly luciferase, cherry-picked, dose response (AID 624132); format: functional;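 also: firefly luciferase luminescence from reporter carrying the Shn3 3'UTR in osteoblasts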
[11] = loss of viability in HepG2 cells – cell-based, CellTiter-Glo, cherry-picked, cytotoxicity control for Shn3 inhibitor project, dose response (AID 624134); format: functional
[12] = target: T2, Nuclear receptor subfamily 0 group B member 1 (Homo sapiens, UniProt P51843); format: functional, cell-based;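 also: HEK293T cells transfected with SF-1 and DAX-1 plus StAR promoter luciferase reporter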
T2 sequence (P51843 whole entry): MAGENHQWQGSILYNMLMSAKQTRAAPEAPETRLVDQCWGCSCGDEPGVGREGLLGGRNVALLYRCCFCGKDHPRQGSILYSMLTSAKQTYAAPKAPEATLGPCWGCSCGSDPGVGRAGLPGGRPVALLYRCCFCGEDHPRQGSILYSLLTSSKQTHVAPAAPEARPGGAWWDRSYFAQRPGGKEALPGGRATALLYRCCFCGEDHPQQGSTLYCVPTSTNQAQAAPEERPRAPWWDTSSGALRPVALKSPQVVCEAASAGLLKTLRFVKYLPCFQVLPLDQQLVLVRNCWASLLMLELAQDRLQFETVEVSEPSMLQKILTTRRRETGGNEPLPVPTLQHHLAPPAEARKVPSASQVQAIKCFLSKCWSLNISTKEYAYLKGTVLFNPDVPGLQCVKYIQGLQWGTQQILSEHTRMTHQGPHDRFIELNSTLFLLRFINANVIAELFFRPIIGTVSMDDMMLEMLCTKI

cells [13] = format: functional, cell-based; remark: listed apart in the source
[14] = target: T3, Corticotropin-releasing factor receptor 2/Corticotropin-releasing factor-binding protein (Homo sapiens, UniProt P24387+Q13324); assay: activators of CRF receptor 2 with binding protein – uHTS hits, confirmation (AID 602473); format: functional; conditions: read-out: EC50_Mean
T3 sequence (Q13324 whole entry): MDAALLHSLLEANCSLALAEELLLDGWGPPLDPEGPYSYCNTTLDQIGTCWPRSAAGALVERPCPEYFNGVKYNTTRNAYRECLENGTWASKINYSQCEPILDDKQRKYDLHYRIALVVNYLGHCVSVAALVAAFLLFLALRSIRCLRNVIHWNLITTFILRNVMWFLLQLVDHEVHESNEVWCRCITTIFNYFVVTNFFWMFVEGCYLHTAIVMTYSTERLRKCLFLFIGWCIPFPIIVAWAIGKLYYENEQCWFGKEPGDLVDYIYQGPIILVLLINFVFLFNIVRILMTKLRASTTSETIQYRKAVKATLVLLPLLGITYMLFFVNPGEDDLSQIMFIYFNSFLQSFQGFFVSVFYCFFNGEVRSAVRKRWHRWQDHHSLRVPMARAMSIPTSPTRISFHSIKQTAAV
T3 sequence (P24387 whole entry): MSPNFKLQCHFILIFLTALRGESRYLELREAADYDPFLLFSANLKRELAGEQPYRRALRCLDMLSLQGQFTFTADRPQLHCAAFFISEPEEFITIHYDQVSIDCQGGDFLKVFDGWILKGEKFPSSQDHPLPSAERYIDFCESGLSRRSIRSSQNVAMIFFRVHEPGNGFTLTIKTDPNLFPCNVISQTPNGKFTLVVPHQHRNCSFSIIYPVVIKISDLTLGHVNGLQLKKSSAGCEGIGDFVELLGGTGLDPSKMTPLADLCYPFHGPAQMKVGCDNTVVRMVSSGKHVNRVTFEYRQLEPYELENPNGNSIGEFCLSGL

[15] = target: T3, Corticotropin-releasing factor receptor 2/Corticotropin-releasing factor-binding protein; assay: Dose Response confirmation of uHTS hits for small molecule antagonists of the CRF-binding protein and CRF-R2 receptor complex.; format: functional; conditions: read-out: IC50_Mean
Protein Wnt-3a = Protein Wnt-3a (Mus musculus, UniProt P27467); assay: antagonism of Wnt3a pathway luciferase reporter – Wnt-LIGHT cells, luminescence, selectivity assay for Gli-SUFU antagonist project, dose response (AID 651570); format: functional; conditions: read-out: IC50_Mean;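 also: Wnt-LIGHT reporter cells stimulated with conditioned medium from Wnt3a-producing cells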
INS1 = assay: INS-1E survival protection against cytokine death – cell-based, luminescence, retest, dose response (AID 449756); format: functional; conditions: Rattus norvegicus;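 also: cell death triggered by IL-1 beta plus TNF-alpha plus IFN-gamma mixture; protective hits raise ATP signal compared with cytokine alone wells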
[16] = target: Induced myeloid leukemia cell differentiation protein Mcl-1 (Homo sapiens, UniProt Q07820); format: functional
NS3 = NS3 (Hepatitis C virus, UniProt A3EZJ3); assay: PubChem AID 2173; design: species or system Hepacivirus hominis
NS3, sequence (A3EZJ3 whole entry): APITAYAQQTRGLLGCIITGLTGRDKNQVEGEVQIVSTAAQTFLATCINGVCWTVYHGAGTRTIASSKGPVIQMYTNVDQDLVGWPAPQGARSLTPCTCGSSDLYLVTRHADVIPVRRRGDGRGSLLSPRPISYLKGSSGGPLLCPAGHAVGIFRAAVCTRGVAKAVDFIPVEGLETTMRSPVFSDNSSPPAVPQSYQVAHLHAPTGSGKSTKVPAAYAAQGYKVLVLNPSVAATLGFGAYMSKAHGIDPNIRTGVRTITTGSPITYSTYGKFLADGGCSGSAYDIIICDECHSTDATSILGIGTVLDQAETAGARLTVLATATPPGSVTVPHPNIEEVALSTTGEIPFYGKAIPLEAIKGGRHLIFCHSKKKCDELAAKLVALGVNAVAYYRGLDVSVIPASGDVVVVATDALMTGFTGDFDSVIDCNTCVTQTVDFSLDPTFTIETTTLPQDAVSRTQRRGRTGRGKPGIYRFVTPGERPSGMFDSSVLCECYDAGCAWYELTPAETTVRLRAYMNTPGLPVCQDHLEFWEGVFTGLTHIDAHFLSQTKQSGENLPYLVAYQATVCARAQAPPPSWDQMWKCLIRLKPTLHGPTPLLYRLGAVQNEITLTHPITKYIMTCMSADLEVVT

Adenosylmethionine-8-amino-7-oxononanoate aminotransferase, sequence (P9WQ81 whole entry, the tested form may be a part): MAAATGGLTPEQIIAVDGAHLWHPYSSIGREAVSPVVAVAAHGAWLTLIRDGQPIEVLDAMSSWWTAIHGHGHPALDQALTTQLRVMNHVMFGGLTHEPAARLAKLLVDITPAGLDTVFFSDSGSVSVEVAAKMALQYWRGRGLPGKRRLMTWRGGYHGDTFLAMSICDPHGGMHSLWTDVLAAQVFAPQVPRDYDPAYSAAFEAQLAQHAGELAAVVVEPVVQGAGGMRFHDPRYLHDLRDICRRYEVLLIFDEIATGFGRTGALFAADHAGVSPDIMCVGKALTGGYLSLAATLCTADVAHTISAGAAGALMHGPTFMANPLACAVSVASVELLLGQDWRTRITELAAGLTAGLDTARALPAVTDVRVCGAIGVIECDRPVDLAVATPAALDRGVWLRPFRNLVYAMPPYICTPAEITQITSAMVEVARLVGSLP
Albumin, sequence (P02769 whole entry): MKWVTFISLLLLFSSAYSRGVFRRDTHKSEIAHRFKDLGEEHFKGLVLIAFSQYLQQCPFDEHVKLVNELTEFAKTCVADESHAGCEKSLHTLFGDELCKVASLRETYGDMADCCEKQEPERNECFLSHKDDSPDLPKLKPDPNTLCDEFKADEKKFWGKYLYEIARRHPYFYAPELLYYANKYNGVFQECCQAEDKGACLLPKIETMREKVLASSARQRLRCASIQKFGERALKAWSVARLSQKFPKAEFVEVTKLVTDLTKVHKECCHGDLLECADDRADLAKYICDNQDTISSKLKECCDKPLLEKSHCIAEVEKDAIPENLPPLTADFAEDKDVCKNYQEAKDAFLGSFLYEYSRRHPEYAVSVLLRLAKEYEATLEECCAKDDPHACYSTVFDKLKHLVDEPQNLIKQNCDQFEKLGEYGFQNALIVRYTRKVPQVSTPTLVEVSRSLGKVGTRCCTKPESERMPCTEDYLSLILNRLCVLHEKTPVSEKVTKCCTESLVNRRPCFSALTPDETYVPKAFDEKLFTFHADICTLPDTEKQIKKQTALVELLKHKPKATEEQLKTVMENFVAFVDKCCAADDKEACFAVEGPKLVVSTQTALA
Photoreceptor-specific nuclear receptor, sequence (Q9Y5X4 whole entry, the tested form may be a part): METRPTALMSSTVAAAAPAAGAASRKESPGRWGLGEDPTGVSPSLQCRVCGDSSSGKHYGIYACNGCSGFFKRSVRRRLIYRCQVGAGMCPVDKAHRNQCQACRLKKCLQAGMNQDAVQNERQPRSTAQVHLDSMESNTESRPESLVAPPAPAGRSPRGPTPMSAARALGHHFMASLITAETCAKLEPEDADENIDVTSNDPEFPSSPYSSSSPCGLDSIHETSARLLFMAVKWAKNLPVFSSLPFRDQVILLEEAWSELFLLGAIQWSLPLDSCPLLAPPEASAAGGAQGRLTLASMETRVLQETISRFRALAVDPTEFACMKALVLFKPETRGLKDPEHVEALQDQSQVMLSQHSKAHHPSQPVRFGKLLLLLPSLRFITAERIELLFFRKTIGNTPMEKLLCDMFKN
Mu-type opioid receptor, sequence (P35372 whole entry): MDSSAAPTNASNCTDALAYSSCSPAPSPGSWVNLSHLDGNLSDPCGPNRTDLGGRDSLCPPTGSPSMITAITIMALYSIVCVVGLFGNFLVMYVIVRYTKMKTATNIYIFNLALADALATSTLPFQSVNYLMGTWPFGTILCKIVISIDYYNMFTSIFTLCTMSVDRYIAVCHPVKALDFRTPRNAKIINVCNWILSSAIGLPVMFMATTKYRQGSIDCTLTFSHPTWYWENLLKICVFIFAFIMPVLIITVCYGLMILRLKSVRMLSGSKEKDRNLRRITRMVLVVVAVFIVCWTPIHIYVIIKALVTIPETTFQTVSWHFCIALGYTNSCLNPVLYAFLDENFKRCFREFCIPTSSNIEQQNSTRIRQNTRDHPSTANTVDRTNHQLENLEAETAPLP
Protein Wnt-3a, sequence (P27467 whole entry): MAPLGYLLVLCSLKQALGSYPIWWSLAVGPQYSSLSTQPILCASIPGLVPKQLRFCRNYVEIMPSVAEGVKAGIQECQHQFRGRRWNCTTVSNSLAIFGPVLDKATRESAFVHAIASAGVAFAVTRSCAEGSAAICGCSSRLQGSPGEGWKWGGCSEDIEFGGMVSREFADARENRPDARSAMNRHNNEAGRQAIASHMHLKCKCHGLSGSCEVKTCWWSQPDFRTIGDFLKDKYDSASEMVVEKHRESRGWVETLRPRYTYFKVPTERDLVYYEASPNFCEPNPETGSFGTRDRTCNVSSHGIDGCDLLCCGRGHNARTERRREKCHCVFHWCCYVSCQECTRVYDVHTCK
5-hydroxytryptamine receptor 2A, sequence (P35363 whole entry): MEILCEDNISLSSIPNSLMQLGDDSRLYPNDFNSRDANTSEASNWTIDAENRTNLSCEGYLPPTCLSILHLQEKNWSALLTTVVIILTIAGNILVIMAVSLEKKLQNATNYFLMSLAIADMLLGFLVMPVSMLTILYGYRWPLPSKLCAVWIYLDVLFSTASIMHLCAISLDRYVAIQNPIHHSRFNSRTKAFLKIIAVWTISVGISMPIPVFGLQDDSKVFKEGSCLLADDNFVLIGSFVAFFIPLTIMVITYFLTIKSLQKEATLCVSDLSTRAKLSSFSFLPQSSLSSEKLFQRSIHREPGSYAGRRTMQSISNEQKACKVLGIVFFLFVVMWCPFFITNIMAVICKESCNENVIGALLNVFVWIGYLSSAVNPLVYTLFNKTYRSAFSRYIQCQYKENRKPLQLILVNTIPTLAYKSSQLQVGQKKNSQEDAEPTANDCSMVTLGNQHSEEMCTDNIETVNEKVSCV
Induced myeloid leukemia cell differentiation protein Mcl-1, sequence (Q07820 whole entry): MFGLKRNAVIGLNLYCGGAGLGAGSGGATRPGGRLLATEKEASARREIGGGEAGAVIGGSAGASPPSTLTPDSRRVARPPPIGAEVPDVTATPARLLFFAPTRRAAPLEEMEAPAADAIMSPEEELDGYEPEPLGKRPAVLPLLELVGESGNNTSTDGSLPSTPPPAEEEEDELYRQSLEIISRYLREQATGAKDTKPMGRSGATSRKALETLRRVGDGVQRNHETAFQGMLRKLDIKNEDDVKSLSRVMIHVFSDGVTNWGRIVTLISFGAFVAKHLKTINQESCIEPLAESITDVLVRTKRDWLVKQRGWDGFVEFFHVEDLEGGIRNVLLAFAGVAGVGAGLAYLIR

Q: Which EC50 (cells [1]) does the source give for COc1ccccc1CC(=O)NCCc1ccccc1 here?
A: > 29.9 µM (inactive)

Q: And the IC50 [2]?
A: 9 µM (active)

Q: And the IC50 (cells [3])?
A: > 29.9 µM (inactive)

Q: And the EC50 [4]?
A: 3.18 µM (active)

Q: With Brc1ccc(CN2CCN(c3ccccn3)CC2)s1 as the molecule, how does the EC50 [5] read?
A: 0.0705 µM (active)

Q: And the EC50 (Mu-type opioid receptor)?
A: 92.5 µM (inactive)

Q: For O=C(CN1CCOCC1)N1CCCCN2[C@@H](CO)[C@H](c3ccc(-c4ccccc4F)cc3)[C@@H]2C1, which AC50 [6] is on record?
A: 0.84 µM (active)

Q: Which AC50 [7] does the source give for O=C(Cc1ccccc1)N1CC[C@@H]2[C@H](CO)Nc3ccc(Br)cc3[C@@H]21 here?
A: 3.09 µM (active)

Q: With c1ccc(CNc2ncnc3sccc23)cc1 as the molecule, how does the IC50 [8] read?
A: 3.7 µM (active)

Q: For COc1cc(OC)cc(C(=O)N/N=C/c2ccc(OC)c(COc3ccc4ccccc4c3)c2)c1, which IC50 (Albumin) is on record?
A: > 94.1 µM (inactive)

Q: With O=C(OCCOc1ccc(Cl)cc1)c1cc(S(=O)(=O)N2CCCCC2)ccc1N1CCOCC1 as the molecule, how does the AC50 [9] read?
A: 6.64 µM (active)

Q: And the AC50 [10]?
A: 1.97 µM (active)

Q: And the IC50 [8]?
A: 4.3 µM (active)

Q: What about the AC50 [11] of the same molecule?
A: > 70 µM (inactive)

Q: Which IC50 [12] does the source give for Cn1ccc(C(=O)Nc2sc3c(c2C(N)=O)CCCCC3)n1 here?
A: > 2.5 µM (active)

Q: What about the IC50 (cells [13]) of the same molecule?
A: > 67.5 µM (inactive)

Q: And the EC50 [14]?
A: > 53 µM (inactive)

Q: And the IC50 [15]?
A: > 47.1 µM (inactive)

Q: For CCCC(C)C(=O)Nc1nc(C)c(-c2csc(Nc3ccc(Cl)cc3)n2)s1 (centres undefined), which IC50 (Protein Wnt-3a) is on record?
A: 13.8 µM (active)

Q: What about the AC50 (INS1) of the same molecule?
A: 4.18 µM (active)

Q: Which AC50 [7] does the source give for COc1ccc(C(C)NC(=O)Nc2ccc(C(C)=O)cc2)cc1OC (centres undefined) here?
A: 3.72 µM (active)

Q: Which results are given for Nc1c(C(=O)NCC2CCCO2)sc2nc3c(c(-c4ccco4)c12)CC/C3=C\c1ccco1 (centres undefined)?
A: IC50 (Albumin): > 94.1 µM (inactive); IC50 [16]: 1.22 µM (active); IC50 (NS3): 3.91 µM (active)

Source: ChEMBL document CHEMBL1201862, “PubChem BioAssay data set” (2004)
